Data reported in patent US11242350B2, “Spirocyclic ROR-gamma modulators” (Escalier Biosciences B.V., priority 2018, dated 2022).

These compounds were tested against RORγt (Homo sapiens (Human), UniProt P51449) (assay: Gal4 ligand binding assay (RORγt Gal fusion luciferase reporter assay in HEK293T cells)). Details: RORγt inverse agonists in RORγt Gal fusion assay.
RORγt, sequence (P51449 269-508): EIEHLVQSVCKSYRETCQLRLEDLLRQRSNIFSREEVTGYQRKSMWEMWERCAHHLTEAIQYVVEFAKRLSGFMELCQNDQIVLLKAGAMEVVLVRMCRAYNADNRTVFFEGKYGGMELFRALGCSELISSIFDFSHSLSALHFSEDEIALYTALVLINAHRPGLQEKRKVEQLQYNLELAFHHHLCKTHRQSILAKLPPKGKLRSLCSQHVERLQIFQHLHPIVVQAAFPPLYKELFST
Assay type: cell-based
Protocol: The N-terminal DNA binding domains (DBD) of the native RORγ and RORγt receptors have been substituted with that of the yeast GAL4-DBD and stably transfected in HEK293T cells that also stably express luciferase under the regulation by upstream activation sequence of yeast Gal4. These cells constitutively express high level RORγ activity due to binding of endogenous co-factors. Both agonist and inverse agonist activity can be detected. The assay was performed according to kit manufacturer's instructions as follows. 10 mM compound stocks were diluted serially 1:3 with DMSO and further diluted with provided media to generate 10 titration points from 60 μM to 3 nM. These treatment conditions were added to the plates as 2× media in 100 μL volume. Each plate includes a positive control with 10 titration points as well as 6 negative control wells with vehicle only, with final DMSO concentration of 0.2%. RORγ reporter cells were rapidly thawed and added to the plates in 100 μL volume. The plates were incubated for 24 h in a 37° C. humidified 5% CO2 incubator. Media was removed before the addition of room temperature luciferous detection substrate. After 5 minute incubation, relative light units (RLUs) were quantified using a plate reading luminometer. Data was normalized to […] with only 0.2%0DMSO. Before establishing internal controls, ursolic acid was used as control.
For `CC(C)c1c(-c2ccc(C(O)(C(F)(F)F)C(F)(F)F)cc2)cc(F)c(CN2CC3(C2)CN(S(C)(=O)=O)C3)c1F` [Example 8, 2-(3′,5′-difluoro-2′-isopropyl-4′-((6-(methylsulfonyl)-2,6-diazaspiro[3.3]heptan-2-yl)methyl)-[1,1′-biphenyl]-4-yl)-1,1,1,3,3,3-hexafluoropropan-2-ol], the IC50 was under 0.05 µM. For `CCc1cc(CN2CC3(C2)CN(S(C)(=O)=O)C3)cc(F)c1-c1ccc(C(O)(C(F)(F)F)C(F)(F)F)cc1` [Example 35, 2-(2′-ethyl-6′-fluoro-4′-((6-(methylsulfonyl)-2,6-diazaspiro[3.3]heptan-2-yl)methyl)-[1,1′-biphenyl]-4-yl)-1,1,1,3,3,3-hexafluoropropan-2-ol], the IC50 was under 0.05 µM. For `CCc1cc(CN2CC3(C2)CN(S(C)(=O)=O)C3)c(F)cc1-c1ccc(C(O)(C(F)(F)F)C(F)(F)F)cc1` [Example 36, 2-(2′-ethyl-5′-fluoro-4′-((6-(methylsulfonyl)-2,6-diazaspiro[3.3]heptan-2-yl)methyl)-[1,1′-biphenyl]-4-yl)-1,1,1,3,3,3-hexafluoropropan-2-ol], the IC50 was under 0.05 µM. In the case of `CCc1cc(CN2CC3(C2)CS(=O)(=O)C3)ccc1-c1ccc(C(O)(C(F)(F)F)C(F)(F)F)cc1C` [Example 18, 6-((2-ethyl-4′-(1,1,1,3,3,3-hexafluoro-2-hydroxypropan-2-yl)-2′-methyl-[1,1′-biphenyl]-4-yl)methyl)-2-thia-6-azaspiro[3.3]heptane 2,2-dioxide], the IC50 is reported as under 0.05 µM. For `CCc1cc(CN2CC3(C2)CN(S(C)(=O)=O)C3)ccc1-c1ccc(C(O)(C(F)(F)F)C(F)(F)F)cc1Cl` [Example 75, 2-(2-chloro-2′-ethyl-4′-((6-(methylsulfonyl)-2,6-diazaspiro[3.3]heptan-2-yl)methyl)-[1,1′-biphenyl]-4-yl)-1,1,1,3,3,3-hexafluoropropan-2-ol], the IC50 was under 0.05 µM. `CC(C)c1cc(CN2CC3(C2)CN(S(C)(=O)=O)C3)cc(F)c1-c1ccc(C(O)(C(F)(F)F)C(F)(F)F)cc1` [Example 15, 1,1,1,3,3,3-hexafluoro-2-(2′-fluoro-6′-isopropyl-4′-((6-(methylsulfonyl)-2,6-diazaspiro[3.3]heptan-2-yl)methyl)-[1,1′-biphenyl]-4-yl)propan-2-ol] gave an IC50 of under 0.05 µM. For `CCc1cc(CN2CCC3(C2)CN(S(C)(=O)=O)C3)ccc1-c1ccc(C(O)(C(F)(F)F)C(F)(F)F)cc1` [Example 30, 2-(2′-ethyl-4′-((2-(methylsulfonyl)-2,6-diazaspiro[3.4]octan-6-yl)methyl)-[1,1′-biphenyl]-4-yl)-1,1,1,3,3,3-hexafluoropropan-2-ol], the IC50 was under 0.05 µM. In the case of `CCc1cc(CN2CCC3(CC2)CN(S(C)(=O)=O)C3)ccc1-c1ccc(C(O)(C(F)(F)F)C(F)(F)F)cc1` [Example 4, 2-(2′-ethyl-4′-((2-(methylsulfonyl)-2,7-diazaspiro[3.5]nonan-7-yl)methyl)-[1,1′-biphenyl]-4-yl)-1,1,1,3,3,3-hexafluoropropan-2-ol], the IC50 is reported as under 0.05 µM. Work on `Cc1cc(C(O)(C(F)(F)F)C(F)(F)F)ccc1-c1cc(F)c(CN2CC3(C2)CN(S(C)(=O)=O)C3)cc1C(C)C` [Example 79, 1,1,1,3,3,3-hexafluoro-2-(5′-fluoro-2′-isopropyl-2-methyl-4′-((6-(methylsulfonyl)-2,6-diazaspiro[3.3]heptan-2-yl)methyl)-[1,1′-biphenyl]-4-yl)propan-2-ol] yielded an IC50 of under 0.05 µM. In the case of `CCc1c(F)c(CN2CC3(C2)CN(S(C)(=O)=O)C3)cc(F)c1-c1ccc(C(O)(C(F)(F)F)C(F)(F)F)cc1F` [Example 70, 2-(2′-ethyl-2,3′,6′-trifluoro-4′-((6-(methylsulfonyl)-2,6-diazaspiro[3.3]heptan-2-yl)methyl)-[1,1′-biphenyl]-4-yl)-1,1,1,3,3,3-hexafluoropropan-2-ol], the IC50 is reported as under 0.05 µM. Compound `CCc1cc(CN2CC3(C2)CN(S(C)(=O)=O)C3)ccc1-c1ccc(C(O)(C(F)(F)F)C(F)(F)F)cc1F` [Example 34, 2-(2′-ethyl-2-fluoro-4′-((6-(methylsulfonyl)-2,6-diazaspiro[3.3]heptan-2-yl)methyl)-[1,1′-biphenyl]-4-yl)-1,1,1,3,3,3-hexafluoropropan-2-ol] has an IC50 of under 0.05 µM. With `CCc1cc(CN2CC3(C2)CN(S(C)(=O)=O)C3)ncc1-c1ccc(C(O)(C(F)(F)F)C(F)(F)F)cc1` [Example 60, 2-(4-(4-ethyl-6-((6-(methylsulfonyl)-2,6-diazaspiro[3.3]heptan-2-yl)methyl)pyridin-3-yl)phenyl)-1,1,1,3,3,3-hexafluoropropan-2-ol] the IC50 was under 0.05 µM. In the case of `CN(C)C(=O)c1cc(CN2CC3(C2)CN(S(C)(=O)=O)C3)ccc1-c1ccc(C(O)(C(F)(F)F)C(F)(F)F)cc1` [Example 55, 4′-(1,1,1,3,3,3-hexafluoro-2-hydroxypropan-2-yl)-N,N-dimethyl-4-((6-(methylsulfonyl)-2,6-diazaspiro[3.3]heptan-2-yl)methyl)-[1,1′-biphenyl]-2-carboxamide], the IC50 is reported as over 0.25 µM. Compound `CC(C)c1c(F)c(CN2CC3(C2)CN(S(C)(=O)=O)C3)cc(F)c1-c1ccc(C(O)(C(F)(F)F)C(F)(F)F)cc1Cl` [Example 87, 2-(2-chloro-3′,6′-difluoro-2′-isopropyl-4′-((6-(methylsulfonyl)-2,6-diazaspiro[3.3]heptan-2-yl)methyl)-[1,1′-biphenyl]-4-yl)-1,1,1,3,3,3-hexafluoropropan-2-ol] has an IC50 of under 0.05 µM. `Cc1cc(CN2CC3(CN(Cc4ccncc4)C3)C2)ccc1-c1ccc(C(O)(C(F)(F)F)C(F)(F)F)cc1` [Example 51, 1,1,1,3,3,3-hexafluoro-2-(2′-methyl-4′-((6-(pyridin-4-ylmethyl)-2,6-diazaspiro[3.3]heptan-2-yl)methyl)-[1,1′-biphenyl]-4-yl)propan-2-ol] gave an IC50 of over 0.25 µM. In the case of `CCc1cc(CN2CC3(CCN(C(=O)OC(C)(C)C)C3)C2)ccc1-c1ccc(C(O)(C(F)(F)F)C(F)(F)F)cc1` [Example 38, tert-butyl 2-((2-ethyl-4′-(1,1,1,3,3,3-hexafluoro-2-hydroxypropan-2-yl)-[1,1′-biphenyl]-4-yl)methyl)-2,6-diazaspiro[3.4]octane-6-carboxylate], the IC50 is reported as 0.05 to 0.25 µM. For `CCc1cc(CN2CCC(S(C)(=O)=O)CC2)ccc1-c1ccc(C(O)(C(F)(F)F)C(F)(F)F)cc1` [Example 10, 2-(2′-ethyl-4′-((4-(methylsulfonyl)piperidin-1-yl)methyl)-[1,1′-biphenyl]-4-yl)-1,1,1,3,3,3-hexafluoropropan-2-ol], the IC50 was under 0.05 µM. `Cc1cc(C(O)(C(F)(F)F)C(F)(F)F)ccc1-c1c(F)cc(CN2CC3(C2)CN(S(C)(=O)=O)C3)c(F)c1C(C)C` [Example 84, 2-(3′,6′-difluoro-2′-isopropyl-2-methyl-4′-((6-(methylsulfonyl)-2,6-diazaspiro[3.3]heptan-2-yl)methyl)-[1,1′-biphenyl]-4-yl)-1,1,1,3,3,3-hexafluoropropan-2-ol] showed an IC50 of under 0.05 µM. Work on `CC(C)c1c(F)c(CN2CC3(C2)CN(S(C)(=O)=O)C3)cc(F)c1-c1ccc(C(O)(C(F)(F)F)C(F)(F)F)cc1F` [Example 86, 1,1,1,3,3,3-hexafluoro-2-(2,3′,6′-trifluoro-2′-isopropyl-4′-((6-(methylsulfonyl)-2,6-diazaspiro[3.3]heptan-2-yl)methyl)-[1,1′-biphenyl]-4-yl)propan-2-ol] yielded an IC50 of under 0.05 µM. For `CC(C)c1c(F)c(CN2CCC3(C2)CN(S(C)(=O)=O)C3)cc(F)c1-c1ccc(C(O)(C(F)(F)F)C(F)(F)F)cc1` [Example 74, 2-(3′,6′-difluoro-2′-isopropyl-4′-((2-(methylsulfonyl)-2,6-diazaspiro[3.4]octan-6-yl)methyl)-[1,1′-biphenyl]-4-yl)-1,1,1,3,3,3-hexafluoropropan-2-ol], the IC50 was 0.05 to 0.25 µM. In the case of `CCc1cc(CN2CCC3(C2)CS(=O)(=O)C3)ccc1-c1ccc(C(O)(C(F)(F)F)C(F)(F)F)cc1` [Example 17, 6-((2-ethyl-4′-(1,1,1,3,3,3-hexafluoro-2-hydroxypropan-2-yl)-[1,1′-biphenyl]-4-yl)methyl)-2-thia-6-azaspiro[3.4]octane 2,2-dioxide], the IC50 is reported as 0.05 to 0.25 µM. For `CCc1cc(CN2CC3(CCS(=O)(=O)C3)C2)ccc1-c1ccc(C(O)(C(F)(F)F)C(F)(F)F)cc1` [Example 24, 2-((2-ethyl-4′-(1,1,1,3,3,3-hexafluoro-2-hydroxypropan-2-yl)-[1,1′-biphenyl]-4-yl)methyl)-6-thia-2-azaspiro[3.4]octane 6,6-dioxide], the IC50 was 0.05 to 0.25 µM. For `CCc1cc(C(O)(C(F)(F)F)C(F)(F)F)ccc1-c1ccc(CN2CC3(C2)CN(S(C)(=O)=O)C3)cc1C` [Example 76, 2-(2-ethyl-2′-methyl-4′-((6-(methylsulfonyl)-2,6-diazaspiro[3.3]heptan-2-yl)methyl)-[1,1′-biphenyl]-4-yl)-1,1,1,3,3,3-hexafluoropropan-2-ol], the IC50 was under 0.05 µM. `CCc1cc(CN2CC3(CCS(=O)(=O)CC3)C2)ccc1-c1ccc(C(O)(C(F)(F)F)C(F)(F)F)cc1` [Example 3, 2-((2-ethyl-4′-(1,1,1,3,3,3-hexafluoro-2-hydroxypropan-2-yl)-[1,1′-biphenyl]-4-yl)methyl)-7-thia-2-azaspiro[3.5]nonane 7,7-dioxide] gave an IC50 of under 0.05 µM. For `CS(=O)(=O)N1CC2(CN(Cc3ccc(-c4ccc(C(O)(C(F)(F)F)C(F)(F)F)cc4)c(C4CC4)c3)C2)C1` [Example 42, 2-(2′-cyclopropyl-4′-((6-(methylsulfonyl)-2,6-diazaspiro[3.3]heptan-2-yl)methyl)-[1,1′-biphenyl]-4-yl)-1,1,1,3,3,3-hexafluoropropan-2-ol], the IC50 was under 0.05 µM.
